For the assay, the target named is T1, p53 (Homo sapiens, UniProt P04637).
T1 construct: gene TP53
As to the kind of experiment: SPR with immobilized p53; also STD NMR, […]-13C NCO NMR titration, SAXS and AUC with NTD. The class given is binding.

As usually defined, the Kd is the constant that tells how readily two partners part at equilibrium. The low end stands for tighter binding, the high end for weaker binding.

T1 sequence (P04637 whole entry): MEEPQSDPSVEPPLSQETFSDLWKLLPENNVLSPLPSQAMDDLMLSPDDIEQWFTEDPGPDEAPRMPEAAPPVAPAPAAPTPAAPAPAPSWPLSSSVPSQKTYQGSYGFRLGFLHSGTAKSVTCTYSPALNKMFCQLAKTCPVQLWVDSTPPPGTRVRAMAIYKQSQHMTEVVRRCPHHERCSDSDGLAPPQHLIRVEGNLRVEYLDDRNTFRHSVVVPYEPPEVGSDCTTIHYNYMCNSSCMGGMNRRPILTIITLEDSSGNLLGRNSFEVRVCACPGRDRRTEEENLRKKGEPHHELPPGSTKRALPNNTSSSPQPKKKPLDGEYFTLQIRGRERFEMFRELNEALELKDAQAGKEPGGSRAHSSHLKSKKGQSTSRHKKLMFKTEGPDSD

`O=C(O[C@@H]1Cc2c(O)cc(O)cc2O[C@@H]1c1cc(O)c(O)c(O)c1)c1cc(O)c(O)c(O)c1` [EGCG, Epigallocatechin gallate] registered a Kd of 1600 ± 1400 nM.

These data come from PMC7881117 (Nature Communications, 2021).
